Measurements: patent US8569336B2, “Compounds for the treatment of inflammatory disorders” (priority 2008, dated 2013)
Like-named read-outs stand apart in the source and are kept apart here.

Tests used:
[1] = target: T1, purified catalytic domain of recombinant human TACE (rhTACEc) (Homo sapiens, UniProt P78536, N452Q/S266A); experiment: TACE kinetic assay: cleavage of internally quenched peptide substrate TNF-FRET 2 (Ki); type: biochemical; conditions: TNF-FRET 2 substrate
T1 construct: 6xHis (C); made in house; host or cells: baculovirus/Hi5 insect cells

[2] = tested on: TNF-α production from human whole blood; experiment: Inhibition of TNF-α production from human whole blood (hWBA), LPS stimulated, ELISA; type: cell-based; conditions: Homo sapiens, TNF-α by ELISA, read-out: hWBA (IC50)
[3] = human whole blood diluted 1:1, LPS stimulated
[4] = LPS-stimulated human whole blood
[5] = 3.5 h, human whole blood diluted 1:1, LPS stimulated, 3.5 h

T1 sequence (P78536 215-477 S266A/N452Q): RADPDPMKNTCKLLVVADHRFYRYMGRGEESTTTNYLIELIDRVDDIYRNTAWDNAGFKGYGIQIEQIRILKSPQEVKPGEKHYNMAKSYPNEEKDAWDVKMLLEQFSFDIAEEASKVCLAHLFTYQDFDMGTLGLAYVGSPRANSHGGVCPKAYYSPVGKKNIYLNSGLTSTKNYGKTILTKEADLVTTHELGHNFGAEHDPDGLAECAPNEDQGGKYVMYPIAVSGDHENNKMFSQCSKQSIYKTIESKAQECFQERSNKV

Compound	Ki ([1]; read-out: Ki)	IC50 [2, 3]	IC50 [2, 4]	Ki ([1]; Ki)	IC50 [2, 5]
COc1ccc2c(c1)C(=O)N(C[C@@]1(c3ccc(-c4ccc(C(=NO)N5CCN(C)CC5)cc4)cc3)NC(=O)NC1=O)C2 [Compound 2456]	0.76 nM	1.01 µM			
COc1ccc2c(c1F)C(=O)N(C[C@@]1(c3cc4nc(-c5cccc(C#N)c5)ccc4o3)NC(=O)NC1=O)C2 [Compound 1504]	0.4 nM		0.579 µM		
COc1ccc2c(c1)C(=O)N(C[C@@]1(c3cc4nc(N(c5cn[nH]c5)C5CCNCC5)ccc4o3)NC(=O)NC1=O)C2 [Compound 1722]			0.093 µM	0.39 nM	
COc1ccc2c(c1)C(=O)N(C[C@@]1(c3cc4[nH]c(=O)ccc4o3)NC(=O)NC1=O)C2 [Compound 2317]	0.375 nM	0.542 µM			
COc1ccc2c(c1)C(=O)N(C[C@@]1(c3ccc(-c4cnc(N5CCCC5)nc4)cc3)NC(=O)NC1=O)C2 [Compound 1503]	2.4 nM		7.09 µM		
COc1ccc2c(c1F)C(=O)N(C[C@@]1(c3cc4nc(C)c(Br)cc4o3)NC(=O)NC1=O)C2 [Compound 1917]	0.5 nM		1.34 µM		
COc1ccc2c(c1F)C(=O)N(C[C@@]1(c3cc4nc(N5CC[C@@H](O)C5)ccc4o3)NC(=O)NC1=O)C2 [Compound 1521]	0.3 nM		0.169 µM		
COc1ccc2c(c1)C(=O)N(C[C@@]1(c3cc4c(o3)CCN(C(=O)Nc3cccnc3)C4)NC(=O)NC1=O)C2 [Compound 321]	701 nM		≥ 1000 µM		
COc1ccc2c(c1OC)C(=O)N(C[C@@]1(c3cc4nc(C)c(Br)cc4o3)NC(=O)NC1=O)C2 [Compound 1918]	2.48 nM		34.1 µM		
COc1ccc2c(c1)C(=O)N(C[C@@]1(c3cc4cnc(Cl)nc4o3)NC(=O)NC1=O)C2 [Compound 2301]	0.36 nM	0.532 µM			
COc1ccc2c(c1)C(=O)N(C[C@@]1(c3ccc(C(=O)N4CCOCC4)cc3)NC(=O)NC1=O)C2 [Compound 2405]	2.91 nM	2.71 µM			
COc1ccc2c(c1F)C(=O)N(C[C@@]1(c3cc4nc(Nc5cn[nH]c5)ccc4o3)NC(=O)NC1=O)C2 [Compound 1730]	0.6 nM		0.175 µM		
COc1ccc2c(c1)C(=O)N(C[C@@]1(c3cc4cc(Br)ccc4o3)NC(=O)NC1=O)C2 [Compound 2192]	0.491 nM				3.31 µM
O=C1NC(=O)[C@](CN2CCc3ccsc3C2=O)(c2cc3ncccc3o2)N1 [Compound 2494]	1.25 nM	2.25 µM			
COc1ccc2c(c1)C(=O)N(C[C@@]1(c3cc4cc(-c5c(OC(C)C)noc5C)cnc4o3)NC(=O)NC1=O)C2 [Compound 501]	0.844 nM		1.59 µM		
COc1ccc2c(c1)C(=O)N(C[C@@]1(c3cc4cc(/C=N/O)ccc4o3)NC(=O)NC1=O)C2 [Compound 2420]	0.4 nM	0.328 µM			
COc1ccc2c(c1)C(=O)N(C[C@@]1(c3cc4ccc(OC)cc4o3)NC(=O)NC1=O)C2 [Compound 2187]	0.989 nM				4.03 µM
COc1ccc2c(c1)C(=O)N(C[C@@]1(c3cc4ccc(C(=O)O)cc4o3)NC(=O)NC1=O)C2 [Compound 2410]	0.3 nM	0.591 µM			
COc1ccc2c(c1)C(=O)N(C[C@@]1(c3cc4cc(C)nc(C)c4o3)NC(=O)NC1=O)C2 [Compound 204]	0.667 nM		4.09 µM		

Compound	Ki ([1]; read-out: Ki)	IC50 [2, 3]	IC50 [2, 4]	Ki ([1]; Ki)	IC50 [2, 5]
COc1ccc2c(c1F)C(=O)N(C[C@@]1(c3cc4c(C)nc(C)cc4o3)NC(=O)NC1=O)C2 [Compound 202]	0.568 nM		0.553 µM		
COc1ccc2c(c1)C(=O)N(C[C@@]1(c3cc4cnc(C#N)cc4o3)NC(=O)NC1=O)C2 [Compound 322]	0.67 nM		0.759 µM		
COc1ccc2c(c1)C(=O)N(C[C@@]1(c3cc4c(C)nc(N)nc4o3)NC(=O)NC1=O)C2 [Compound 2299]		0.284 µM		0.762 nM	
COc1ccc2c(c1)C(=O)N(C[C@@]1(c3oc4cccnc4c3-c3ncccc3O)NC(=O)NC1=O)C2 [Compound 1940]	0.75 nM		0.659 µM		
COc1ccc2c(c1)C(=O)N(C[C@@]1(c3cc4c(C(F)(F)F)nccc4o3)NC(=O)NC1=O)C2 [Compound 2270]	0.441 nM				1.07 µM
COc1ccc2c(c1F)C(=O)N(C[C@@]1(c3cc4cc(C5(C)NC(=O)NC5=O)c(C)cc4o3)NC(=O)NC1=O)C2 (stereo partly shown) [Compound 1306]	1.42 nM		0.414 µM		
COc1ccc2c(c1F)C(=O)N(C[C@@]1(c3cc4ccc(NC(C)=O)nc4o3)NC(=O)NC1=O)C2 [Compound 505]	0.558 nM		0.252 µM		
Cn1cc(-c2ccc3c(c2)C(=O)N(C[C@@]2(c4cc5ncccc5o4)NC(=O)NC2=O)C3)cn1 [Compound 1742]	3.63 nM		3.72 µM		
O=C1NC(=O)[C@](CN2Cc3ccc(O)cc3C2=O)(c2cc3ncccc3o2)N1 [Compound 1735]			3.83 µM	1.52 nM	
COc1ccc2c(c1)C(=O)N(C[C@@]1(c3cc4cc(S(N)(=O)=O)ccc4o3)NC(=O)NC1=O)C2 [Compound 2478]	0.35 nM	0.6 µM			
COc1ccc2c(c1)C(=O)N(C[C@@]1(c3cc4nc(-c5cncc(C#N)c5)ccc4o3)NC(=O)NC1=O)C2 [Compound 2471]	0.779 nM	3.66 µM			
COCCN1CCN(c2ccc3oc([C@]4(CN5Cc6ccc(OC)cc6C5=O)NC(=O)NC4=O)cc3n2)CC1 [Compound 1500]	1.1 nM		0.333 µM		
COc1ccc2c(c1)C(=O)N(C[C@@]1(c3cc4cc(-c5cccc(C#N)c5)ncc4o3)NC(=O)NC1=O)C2 [Compound 2432]	0.92 nM	1.72 µM			
COc1ccc2c(c1)C(=O)N(C[C@@]1(c3cc4nc(N5CCCC5)ccc4o3)NC(=O)NC1=O)C2 [Compound 2106]	0.422 nM				0.669 µM
CCN1CCN(c2ccc3oc(C4(CN5CCc6ccsc6C5=O)NC(=O)NC4=O)cc3n2)CC1 (stereo not shown) [Compound 2496]	0.66 nM	0.314 µM			
COc1ccc2c(c1)C(=O)N(C[C@@]1(c3cc4c(ccc5sc(C)nc54)o3)NC(=O)NC1=O)C2 [Compound 1739]	0.071 nM		4.53 µM		
COc1ccc2c(c1F)C(=O)N(C[C@@]1(c3cc4c(F)cnc(C)c4o3)NC(=O)NC1=O)C2 [Compound 1314]	1.2 nM		0.727 µM		
COc1ccc2c(c1)C(=O)N(C[C@@]1(c3cc4nc(-c5cc(O)cc(-c6ccncc6)c5)ccc4o3)NC(=O)NC1=O)C2 [Compound 1308]	1.39 nM		2.95 µM		
COc1ccc2c(c1)C(=O)N(C[C@@]1(c3cc4c(C)nc(O)c(C(N)=O)c4o3)NC(=O)NC1=O)C2 [Compound 2435]	1.14 nM	0.504 µM			

Compound	Ki ([1]; read-out: Ki)	IC50 [2, 3]	IC50 [2, 4]	Ki ([1]; Ki)	IC50 [2, 5]
O=C1NC(=O)[C@](CN2Cc3ccc(O)cc3C2=O)(c2cc3cnccc3o2)N1 [Compound 2188]	2.26 nM				2.99 µM
COc1ccc2c(c1)C(=O)N(C[C@@]1(c3cc4cnc(-c5c(C)nn(C)c5C)cc4o3)NC(=O)NC1=O)C2 [Compound 2251]	0.746 nM				2.49 µM
COc1ccc2c(c1)C(=O)N(C[C@@]1(c3cc4nc(-c5cnc(N)nc5)ccc4o3)NC(=O)NC1=O)C2 [Compound 1519]	0.4 nM		0.142 µM		
COc1ccc2c(c1F)C(=O)N(C[C@@]1(c3cc4cc(-c5c(C)nn(C)c5C)c(F)cc4o3)NC(=O)NC1=O)C2 [Compound 1181]	0.41 nM		0.354 µM		
COc1ccc2c(c1)C(=O)N(C[C@@]1(c3cc4cc(C)ncc4o3)NC(=O)NC1=O)C2 [Compound 2302]	0.437 nM	0.47 µM			
CNCc1ccc2oc([C@]3(CN4Cc5ccc(OC)cc5C4=O)NC(=O)NC3=O)cc2c1 [Compound 2185]	3.99 nM				1.04 µM
COc1ccc2c(c1)C(=O)N(C[C@@]1(c3cc4cc(C(=O)NCCCC[C@H](NC(=O)CCCC[C@@H]5SCC6NC(=O)NC65)C(=O)O)c(F)cc4o3)NC(=O)NC1=O)C2 (stereo partly shown) [Compound 1283]	0.39 nM				3.3 µM
COc1ccc2c(c1)C(=O)N(C[C@@]1(c3cc4c(C(C)=O)nccc4o3)NC(=O)NC1=O)C2 [Compound 2448]	0.8 nM	0.839 µM			
COc1ccc2c(c1)C(=O)N(CC1(c3cc4cc(-c5cc(O)[nH]n5)ccc4o3)NC(=O)NC1=O)C2 (stereo not shown) [Compound 2223]	1.23 nM				0.242 µM
COc1ccc2c(c1F)C(=O)N(C[C@@]1(c3cc4cc(F)c(C)nc4o3)NC(=O)NC1=O)C2 [Compound 1313]	0.83 nM		0.686 µM		
COc1ccc2c(c1F)C(=O)N(C[C@@]1(c3cc4cc(C)nc(C)c4o3)NC(=O)NC1=O)C2 [Compound 203]	0.0608 nM		0.943 µM		
COc1ccc2c(c1)C(=O)N(C[C@@]1(c3cc4nc(Nc5nccc(O)n5)ccc4o3)NC(=O)NC1=O)C2 [Compound 2144]	0.194 nM				0.267 µM
CN(C)C1CCN(c2ccc3oc(C4(CN5Cc6ccc(Cl)cc6C5=O)NC(=O)NC4=O)cc3n2)CC1 (stereo not shown) [Compound 1291]	1.33 nM				1.4 µM
COc1ccc2c(c1)C(=O)N(C[C@@]1(c3cc4cc(N5CC(=O)NS5(=O)=O)ccc4o3)NC(=O)NC1=O)C2 [Compound 2230]	0.781 nM				4.41 µM
COc1ccc2c(c1)C(=O)N(C[C@@]1(c3cc4cc(-c5cc(N)n[nH]5)ccc4o3)NC(=O)NC1=O)C2 [Compound 2246]	0.523 nM				0.11 µM
COc1ccc2c(c1Cl)C(=O)N(C[C@@]1(c3cc4cnccc4o3)NC(=O)NC1=O)C2 [Compound 2306]	0.57 nM	0.834 µM			
COc1ccc2c(c1)C(=O)N(C[C@@]1(c3cc4ncc(-c5ncc[nH]5)cc4o3)NC(=O)NC1=O)C2 [Compound 1943]	0.54 nM		0.742 µM		
COc1ccc2c(c1)C(=O)N(C[C@@]1(c3cc4cnc(C5CC5)cc4o3)NC(=O)NC1=O)C2 [Compound 2287]	0.429 nM	0.575 µM			
